In patent publication US11344534B2, “Cholinergic agonism for the treatment of pancreatic cancer” (priority 2017, dated 2022):
“Also recorded” adds a separate entry of the source.

How the values were obtained:
[1] = tested on: Panc02 liver metastases; experiment: Panc02 liver metastatic model (splenic injection, hemi-splenectomy); type: in vivo, mouse
Excerpt: A metastatic mouse model of pancreatic cancer has been developed. The procedure reported by Lei Zheng has been modified and involves resecting half the spleen followed by injection 2×10^6 Panc02 (or other PDAC cell lines) into the spleen (4, 5). (FIG. 3A, B). Mice are then sacrificed 30-60 days later. […] In combination with this metastatic model of pancreatic cancer, a surgical approach to achieve selective cholinergic denervation of the liver has been developed. This involves identifying and isolating the hepatic branch of the vagal nerve, followed by resection of the hepatic branch (FIG. 3E, F).
In additional preliminary studies, the effects of bethanechol on the progression of liver metastases and in survival were examined. […] There were 5-8 mice in each group.
Then, it was examined whether the direct parasympathetic signal influences the metastatic lesions. The liver is a major site of metastatic spread for pancreatic cancer as well as many other solid tumors, and many patients with advanced PDAC eventually die with liver metastases. In order to investigate the role of parasympathetic signaling on the growth of liver metastasis, a well established syngeneic model of metastatic pancreatic cancer (Soares et al. 2014) was utilized. […] Moreover, to confirm that the parasympathetic pathway directly regulated tumor cells at the liver metastatic site, expression of Ki67, CD44 and pEGFR was analyzed.
Liver metastatic model procedure was performed previously described. (Soares K C et al. 2014) Briefly, a left subcostal incision was performed along the line with the left ear and the spleen was exposed through the incision. The spleen was divided into upper and lower spleen by placing two Horizon medium size ligating clips in the center of the spleen. 150 μl of phosphate buffered saline was drawn up into a 27 G×⅝″ syringe and 100 μl of Panc02 (2×10^6) cells was also drawn up into the same syringe and the cells were injected slowly into the exposed lower-hemispleen. Lower hemisplenectomy was performed by ligating pancreas spleen vessel and cutting above.
However, given that many PDAC patients with metastatic disease (Stage IV) eventually die with liver metastases, the effect of parasympathetic signaling on the growth of hepatic lesions was examined utilizing a well-established syngeneic model of metastatic PDAC^32. […] Moreover, to confirm that the parasympathetic pathway directly regulated tumor cells at the liver metastatic site, expression of Ki67 (FIGS. 12H-K), p-EGFR (FIGS. 12L-O) and CD44 (FIGS. 12P-S) were analyzed immunohistochemically. […]

[2] = tested on: Kras^+/LSL-G12D mutant spheres; experiment: 3D Matrigel sphere culture of Kras mutant (Ad-Cre) pancreatic acinar cells; type: cell-based, mouse
Protocol: Cholinergic stimulation could in theory promote cancer indirectly through effects on stromal cells, or directly through effects on pancreatic epithelial cells. To determine whether cholinergic stimulation promoted tumor development in part through muscarinic receptors on cancer cells, the sphere forming capacity of K-Ras^+/LSL-G12D mutant pancreatic acinar cells was assessed in a 3D Matrigel culture system, with or without muscarinic stimulation. K-Ras^+/LSL-G12D mutant spheres were generated from K-Ras^+/LSL-G12D pancreatic acinar cells by treatment with adenoviral delivered Cre (Ad-Cre).
3D cultures were performed as described previously (Wescott et al., 2009). Organoids were cultured for 5 days before analysis. Adenoviral delivered Cre (Ad-Cre) was added to the cultures and medium was changed after 12 hours. […] Sphere size and […] were analyzed using ImageJ software.
To determine whether cholinergic stimulation suppresses tumor development in part through specific muscarinic receptors on cancer cells, the sphere forming capacity of Kras^+/LSL-G12D pancreatic acinar cells in a 3D Matrigel culture system in the absence and presence of muscarinic agonists and antagonists was assessed. Kras^+/LSL-G12D mutant spheres were generated from Kras^+/LSL-G12D mice by delivery of an adenoviral Cre (Ad-Cre).
3D cultures were performed as described previously^18. Organoids were cultured for 5 days before analysis. Adenoviral delivered Cre (Ad-Cre) was added to the cultures and medium was changed after 12 hours. […] Sphere size and number were analyzed using ImageJ software.

[3] = tested on: murine K8282 cells; experiment: Western blot of EGFR/MAPK and PI3K/AKT signaling, K8282; type: cell-based, mouse
Protocol: To analyze EGFR and the MAPK and PI3K-Akt pathway in human and murine pancreatic cancer cell lines, cells were grown in 12-well plate to around ˜70% confluent, changed the 0.5% FBS medium, added the drugs respectively and incubated them for further 72 hrs incubation in a typical CO2 incubator (˜20% O2). After removing the medium, cells were washed twice with PBS, and protein extraction was performed on ice using RIPA buffer with protease inhibitor (Complete) (Roche) cocktail and phosphatase inhibitor (phosSTOP) (Roche). Protein samples were subsequently separated in 10% Bis-Tris Gel NuPAGE® electrophoresis using MES SDS Running Buffer (Invitrogen, CA, USA). After transfer to nitrocellulose, membranes were blocked with 5% BSA, and samples were probed with the following primary antibodies: p-EGFR (Cell Signaling), EGFR (Cell Signaling), p-BRAF (Cell Signaling), BRAF (Cell Signaling), p-ERK1/2 (phosphorylated p44/42 MAPK) (Thr202/Tyr204) (Cell Signaling), ERK1/2 (p44/42 MAPK) (Thr202/Tyr204) (Cell Signaling), p-PI3K (Cell Signaling), PI3K (Cell Signaling), p-Akt (Cell Signaling), Akt (Cell Signaling), and β-actin (Cell Signaling) followed by horseradish peroxidase-coupled secondary antibody. Immunoreactive bands were visualized using 5-bromo-4-chloro-3-indolyl phosphate/nitro blue tetrazolium and bands were quantified with ImageJ.
To analyze EGFR, MAPK and PI3K-AKT pathways in human and murine pancreatic cancer cell lines, cells were grown in 12-well culture plates to ˜70% confluency. The medium was then changed to 0.5% FBS medium, the respective drugs were added, and they were incubated for an additional 72 hours in a CO2 incubator (˜5% CO2). After removing the medium, cells were washed twice with PBS, and protein extraction was performed on ice using RIPA buffer with protease inhibitor (Complete, Roche) cocktail and a phosphatase inhibitor (phosSTOP, Roche). Protein samples were subsequently separated by 10% Bis-Tris Gel NuPAGE® electrophoresis using MES SDS Running Buffer (Invitrogen, CA, USA). After transfer to nitrocellulose, membranes were blocked with 5% BSA, and samples were probed with the following primary antibodies: p-EGFR (Cell Signaling), EGFR (Cell Signaling), p-BRAF (Cell Signaling), BRAF (Cell Signaling), p-ERK1/2 (phosphorylated p44/42 MAPK) (Thr202/Tyr204) (Cell Signaling), ERK1/2 (p44/42 MAPK) (Thr202/Tyr204) (Cell Signaling), p-PI3K (Cell Signaling), PI3K (Cell Signaling), p-AKT (Cell Signaling), AKT (Cell Signaling), and β-actin (Cell Signaling) followed by horseradish peroxidase-coupled secondary antibody. Immunoreactive bands were visualized using 5-bromo-4-chloro-3-indolyl phosphate/nitro blue tetrazolium and bands were quantified with ImageJ.

[4] = tested on: primary human PDA organoids; experiment: Primary human PDA organoids treated with pilocarpine; type: cell-based; settings: dose-dependent, 100DM pilocarpine in FIG. 21B
Excerpt: To better understand the effect of growth inhibition by muscarinic agonists in human pancreatic epithelial cells, we generated primary human PDA organoids. Treatment with the broad muscarinic agonist, pilocarpine, reduced the number of viable organoids in a dose-dependent manner (FIGS. 21A-B). Treatment of human pancreatic cancer cells (Panc1) with pilocarpine reduced the size of the CD44+CD24+EpCAM+putative cancer stem cell population in a dose dependent manner (FIG. 21C) and inhibited tumor initiation in NOD/SCID mice (FIG. 21D). To better understand growth inhibition by muscarinic agonists, we analyzed changes in signaling molecules in animal models and PDA cell lines. […] Surprising, a number of signaling molecules were suppressed by both nonspecific and M1R-specific muscarinic agonists, including EGFR, B-RAF, ERK1/2, PI3K, and AKT kinase. These kinases all show reduced phosphorylation by muscarinic agonists, which was abrogated by treatment with muscarinic antagonists. Finally, we analyzed Panc-1 cells following pilocarpine treatment (1 mM, 72 hrs) using RNAseq, and noted that many of the genes suppressed by pilocarpine included EGFR and PI3K^17.

[5] = tested on: Kras mutant Panc1 cells; experiment: Ca2+ flux in pancreatic cancer cells; type: cell-based, human; settings: preliminary studies
[6] = Panc02 liver metastatic model, at necropsy
[7] = Panc02 liver metastatic model, bethanechol vs untreated control
[8] = day 5, pilocarpine 1 mM, scopolamine 10 μM, McN-34A 50 μM, pirenzepine 50 μM, vs controls

Compound: CC(C[N+](C)(C)C)OC(N)=O (stereo not drawn) [bethanechol, 2-[(aminocarbonyl)oxy]-N,N,N-trimethyl-1-propanaminium]
- (maximum) tumor volume [1, 6]: inhibited
- number of tumors [1, 6]: inhibited
- survival ([1]; Panc02 liver metastatic model, bethanechol in drinking water, controls 29 days): 41 days
- survival (in words) [1, 7]: significantly longer; also recorded: extend; also recorded: significantly prolonged
- tumor growth [1, 7]: inhibited; also recorded: suppressed
- immunohistochemical markers: Ki67, C44, F4/80, nerves (peripherin or neurofilament), phospho-EGFR and phosphor-PI3K ([1]; after bethanechol treatment): decreased
- expression of Ki67, p-EGFR and CD44 in liver metastases ([1]; bethanechol group vs untreated control): significantly decreased; also recorded: suppression
- reduction in Ki-67 staining of Panc02 liver mets ([1]; mice, bethanechol treatment): 50%

Compound: CC[C@@H]1C(=O)OC[C@@H]1Cc1cncn1C [pilocarpine, (3S,4R)-3-ethyl-4-[(3-methylimidazol-4-yl)methyl]oxolan-2-one]
- number of spheres [2, 8]: significantly fewer; also recorded: reduced
- size of spheres [2, 8]: smaller
- sphere formation and growth of Kras mutant spheres ([2]; oncogenic K-Ras allele activated by adeno-Cre virus): significant inhibitory effect; also recorded: decrease; also recorded: suppresses
- phosphorylation of EGFR, BRAF, ERK1/2, PI3K and AKT kinases (western blot) ([3]; 72 hours): significantly less phosphorylated
- ratios of p-EGFR/EGFR, p-BRAF/BRAF, p-ERK/ERK, p-PI3K/PI3K and p-AKT/AKT (densitometry) ([3]; single agent alone): significantly decreased
- number of viable organoids [4]: reduced
- Ca2+ flux [5]: unable to stimulate
